“Also recorded” adds a separate entry of the source.
Key:
C2C12 cells [1] = test: Flow cytometry (FACS) cell cycle analysis during myogenic differentiation; assay type: cell-based, murine; details: percentage of cells; differentiation media, 0.5 mM oligonucleotide, 24 hours; DNA content by FACS
Cdk4 = test: Western immunoblot of C2C12 lysates, anti-Cdk4; assay type: cell-based, murine; details: differentiation media with Lipofectin, 24 hours
C2C12 cells [2] = assay type: cell-based, murine
p21 = test: Western immunoblot of C2C12 lysates, anti-p21; assay type: cell-based, murine; details: differentiation media with Lipofectin, 24 hours
Akt [3] = assay type: cell-based, murine
[4] = tested on: neonatal rat cardiac myocytes; test: Neonatal cardiac myocyte viability, trypan-blue exclusion assay; assay type: cell-based
cardiomyocytes = test: TUNEL analysis of cultured cardiomyocytes; assay type: cell-based, rat; details: increasing concentrations of IGF-1, mock- and Adeno-β-gal-transfected cells, 48 hours
cardiac myocytes = test: Hoechst 33342 staining for pyknotic nuclei in cardiac myocytes; assay type: cell-based, rat; details: serum-free media with IGF-1
Akt [5] = test: Akt kinase assay (histone H2B) in cardiac myocyte lysates; assay type: cell-based, rat; details: serum-deprived, 50 ng/ml IGF-1, 15 min
HUVECs [6] = test: HUVEC plasmid co-transfection cell-death assay (surviving β-galactosidase-positive cells); assay type: cell-based, human; details: 25 ng/ml VEGF, serum-free 21 hrs, control plasmid
Akt2 = Akt2 kinase assay (histone H2B) in HUVEC lysates; assay type: cell-based, human; details: serum-deprived HUVEC, VEGF 100 ng/ml, 15 min
HUVECs [7] = test: HUVEC cell viability, Trypan-blue exclusion assay; assay type: cell-based, human; details: 100 ng/ml VEGF, serum-free DMEM, 21 hours

Chain of Akt (P31750 whole entry): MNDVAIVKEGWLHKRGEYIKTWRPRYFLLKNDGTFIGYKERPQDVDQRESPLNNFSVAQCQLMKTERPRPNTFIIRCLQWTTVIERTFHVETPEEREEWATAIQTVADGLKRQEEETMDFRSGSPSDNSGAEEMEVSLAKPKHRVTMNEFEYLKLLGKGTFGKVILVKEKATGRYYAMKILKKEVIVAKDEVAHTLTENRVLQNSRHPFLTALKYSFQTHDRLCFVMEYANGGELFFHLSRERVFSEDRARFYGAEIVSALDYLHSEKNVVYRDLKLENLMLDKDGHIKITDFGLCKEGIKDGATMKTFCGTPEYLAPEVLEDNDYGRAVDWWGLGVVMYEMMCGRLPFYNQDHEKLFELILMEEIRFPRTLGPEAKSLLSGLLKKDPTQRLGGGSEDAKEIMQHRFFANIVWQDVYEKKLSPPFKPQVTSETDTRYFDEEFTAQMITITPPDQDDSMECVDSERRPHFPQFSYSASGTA

Question: How did the “Cell cycle phase G0/G1” value (C2C12 cells [1]) turn out when “5′-TGG ATC CGA CAT GTC AGA-3′ (TGGATCCGACATGTCAGA; all phosphorothioate, sugars by position and methylation of C not given here) [Control]” was run?
Answer: Its value is 67.

Question: And the “Cell cycle phase G2/M” value (C2C12 cells [1])?
Answer: The value was 8.

Question: And the “Cell cycle phase S” value (C2C12 cells [1])?
Answer: The value was 25.

Question: Which cdk4 expression (Cdk4) does the source give for “5′-TGTCAGGCTGGTCTGCCTCC-3′ (antisense TGTCAGGCTGGTCTGCCTCC; chemistry not given here) [p21-AS]” here?
Answer: Its cdk4 expression is “no significant effect on cdk4”.

Question: What about the “Cell cycle phase G0/G1” value (C2C12 cells [1]) of the same substance?
Answer: Its value is 38.

Question: What about the “Cell cycle phase G2/M” value (C2C12 cells [1]) of the same substance?
Answer: Its value is 17.

Question: And the “Cell cycle phase S” value (C2C12 cells [1])?
Answer: Its value is 45.

Question: What about the “cell-death versus control cultures” value (C2C12 cells [2]) of the same substance?
Answer: The value was “Markedly enhanced cell-death”.

Question: And the “induction of p21” value (p21)?
Answer: The value was “markedly inhibited the induction of p21”.

Question: And the Akt expression (Akt [3])?
Answer: Its Akt expression is “statistically significant reduction in Akt expression”.

Question: “IGF-1: Insulin-like growth factor-1, purchased from Gibco BRL” was tested. Which “time cardiac myocyte viability was sustained” value ([4]; 50 ng/ml IGF-1, serum-depleted) did it give?
Answer: Its value is “more than 48 hours”.

Question: And the “cardiac myocyte viability / cytoprotection by IGF-1” value ([4]; serum-free media, up to 72 hours)?
Answer: The value was “dependent on the dose of IGF-1; also recorded: maintained”.

Question: And the “frequency of myocyte apoptosis (TUNEL)” value (cardiomyocytes)?
Answer: Its value is “reduced the frequency of myocyte apoptosis”.

Question: What about the “incidence of pyknotic nuclei” value (cardiac myocytes) of the same substance?
Answer: Its value is “suppressed the incidence of pyknotic nuclei”.

Question: What about the “Akt activity (phosphorylation of histone H2B)” value (Akt [5]) of the same substance?
Answer: The value was “induced the phosphorylation of histone H2B”.

Question: With VEGF as the substance, how does the “increase in number of surviving β-galactosidase positive cells (factor)” value (HUVECs [6]) read?
Answer: Its value is 3.

Question: And the Akt2 kinase activity (Akt2)?
Answer: Its Akt2 kinase activity is “little or no activation of Akt2”.

Question: What about the “cell loss induced by serum-deprivation” value (HUVECs [7]) of the same substance?
Answer: The value was “completely reversed cell loss induced by serum-deprivation”.

— patent US7368420B1, “Akt compositions for enhancing survival of cells” (Caritas St. Elizabeth's Medical Center of Boston, Inc., priority 1998, dated 2008)
